Reference: patent publication US9018226B2, “Antipsychotic agents and standardized antipsychotic fractions from Rauwolfia tetraphylla and process of their isolation” (Council of Scientific & Industrial Research, priority 2009, dated 2015)

Columns and labels:
[1] = system: amphetamine induced hyperactive mouse model; test: amphetamine induced hyperactivity mouse model; type: in vivo, Swiss mice; details: for in-vivo antipsychotic activity, in words: mouse
Description: (§1) The above fractions were evaluated for their antipsychotic activity. In order to assess the antipsychotic potential of MeOH extract, its various fractions, alkaloids isolated and their derivatives from Rauwolfia tetraphylla leaf, amphetamine induced hyper activity mouse model was used following the method of Szewczak et al (1987). Adult Swiss mice of either sex (25±2 g body weight) obtained from the Indian Institute of Toxicology Research (IITR), Lucknow, India animal-breeding colony were used throughout the experiment. The animals were housed in plastic polypropylene cages under standard animal house conditions with a 12 hours light/dark cycle and temperature of 25±2° C. The animals had adlibitum access to drinking water and pellet diet (Hindustan Lever Laboratory Animal Feed, Kolkata, India). The Animal Care and Ethics Committee of IITR approved all experimental protocols applied to animals.
Mice were injected with amphetamine (5 mg/kg, i.p.) 60 minutes after oral treatment with respective extract in each group.
as §1, with “In” for “The above fractions were evaluated for their antipsychotic activity. In”
The mice randomly grouped in batches of seven animals per group. The basal motor activity (distance traveled) of each mouse was recorded individually using automated activity monitor (TSE, Germany). After basal activity recording, a group of seven animals were challenged with amphetamine [[…], intra peritoneal (i.p) dissolved in normal saline]. After 30 min. amphetamine injection, motor activity was recorded for individual animal for 5 min.
The difference in motor activity as indicated by distance traveled in animals with amphetamine alone treated and animals with samples plus amphetamine challenge was recorded as inhibition in hyperactivity caused by amphetamine and the data presented as percent inhibition in amphetamine induced hyperactivity.

[2] = system: alpha-2 adrenoceptor; details: rats and mice; cited from earlier work
[3] = system: alpha-2 adrenoceptors; details: in vivo; cited from earlier work

## CC(N)Cc1ccccc1 (stereo not shown) [Amphetamine]
[1]; amphetamine alone, 5 mg/Kg i.p.
  Distance traveled: 6064 cm

## COC(=O)[C@H]1[C@H]2C[C@@H]3c4[nH]c5cc(OC)ccc5c4CCN3C[C@H]2C[C@@H](OC(=O)c2cc(OC)c(OC)c(OC)c2)[C@@H]1OC [Reserpine]
[1]; dose 5 mg/Kg
  Anti-psychotic activity (% inhibition in amphetamine induced hyperactivity): 34%
[1]; dose 5 mg/Kg, amphetamine 5 mg/kg i.p. 60 minutes later
  Distance traveled: 4002 cm
[1]; dose […], amphetamine 5 mg/kg i.p. 60 minutes later
  Distance traveled: 5093 cm

## c1ccc2c(c1)OCC(C1=NCCN1)O2 (stereo not shown) [RX 781094]
[2]
  effectiveness relative to α-yohimbine in antagonizing clonidine hypotension and sedation: approximately 3 times

## COC(=O)[C@H]1[C@H]2C[C@H]3c4[nH]c5ccccc5c4CCN3C[C@H]2CC[C@@H]1O [Compound K001, 17α-hydroxy-20α-yohimban-16β-carboxylic acid methyl ester]
[1]; 6.25 mg/Kg
  inhibition in amphetamine induced hyperactivity mice model: > 60%
[1]
  in-vivo antipsychotic activity, in words: significant in-vivo antipsychotic activity at lower doses
[1]; listed as α-yohimbine (K001)
  in-vivo antipsychotic activity, in words: more active even at lower doses
[3]
  alpha-2 adrenoceptor selectivity relative to RS 21361: ~2 times
  alpha-2 adrenoceptor selectivity relative to RX 781094: about 25 times
